Assay results as given in publication PMC4357715, “The beta hairpin structure within ribosomal protein S5 mediates interplay between domains II and IV and regulates HCV IRES function” (Nucleic Acids Research, 2015).

What was measured:
[1] = system: HCV IRES; assay: Ribosomal assembly assay on HCV IRES in RRL; type: biochemical, Hepatitis C Virus; conditions: wild-type 32P-labelled HCV IRES RNA; 2 mM GMP-PNP or 20 mM cycloheximide
Description: ^32P-labelled wild type or mutant HCV IRES RNA (3 × 10^5 c.p.m.) was added to 25 μl of translation reaction containing 17.5 μl of rabbit reticulocyte lysate (RRL). The reactions were incubated at 30°C for 15 min and diluted to 150 μl with ice cold gradient buffer (20 mM Tris–HCl pH 7.5, 100 mM KCl, 3 mM MgCl2, 1 mM Dithiothreitol (DTT)) and overlaid in 5–30% sucrose gradient. The ribosomal complexes were separated by ultracentrifuge for 3 h at 30 000 rpm at 4°C in TH-641 rotor (Thermo Scientific). Fractions (330 μl) were manually collected from the top of the tube and radioactivity was measured in a liquid scintillation counter. To validate the peaks, in vitro translation was performed in presence of 2 mM 5′-guanylyl imidodiphosphate (GMP-PNP) or 20 mM of cycloheximide and peaks were resolved on sucrose gradient.
We confirmed the 48S and 80S peaks in the ribosome assembly profile by using GMPPNP and cycloheximide respectively. As expected GMPPNP and cycloheximide stalled translation at the 48S and 80S stages, respectively (Figure 3A).
Figure 3. Ribosome assembly on wild type and mutant HCV IRES. (A) Ribosome assembly on wild-type ^32P-labelled HCV IRES RNA in the presence of either cycloheximide or GMPPNP. […] Different fractions were collected and the radioactivity associated with each fraction was measured. […]

[2] = system: global protein synthesis in Huh7 cells; assay: 35S-Methionine metabolic labelling; type: cell-based; conditions: cycloheximide 100 μg/ml, positive control
Description: Forty-eight hours after transfection, medium was replaced with serum free DMEM lacking methionine and cysteine (Sigma) and incubated for 1 h. Then 100 μci of ^35S in vivo pro-twin label mix (BRIT) was added to each well and cells were labelled for 30 min. Cells treated with 100 μg/ml concentration of cycloheximide were taken as positive control for global translation shut down. After labelling the cells, media was removed and the cells were washed three times with ice-cold phosphate buffered saline (PBS). Cells were harvested and lysed in the 100 μl of RIPA buffer lacking SDS (50 mM Tris–HCl pH 7.4, 150 mM NaCl, 1 mM EDTA, 1% NP-40, 0.25% sodiumdeoxycholate) containing protease inhibitors (complete EDTA-free protease inhibitor, Roche). The protein concentration of the lysate was then estimated by Bradford assay. Twenty-five micrograms of protein from each sample was mixed with 0.1 mg BSA and ice-cold TCA was added to a final concentration of 20%. The samples were incubated for 30 min on ice and loaded on prewet (with 20% TCA) glass microfibre filters (Whatmann). The filters were washed with 1 ml of 20% TCA twice and once with 1 ml of 100% ethanol. The filters were then incubated overnight with 4 ml of scintillation liquid and counts were taken.
Figure 6. Role of RPS5 in HCV translation and replication. […] Huh7 cells were transfected with siNSP RNA or siRPS5 RNA. […]

Row | Structure (SMILES) | stage at which translation is stalled [1] [S] | reduction of protein levels (35S-methionine incorporation) [2] [%]
1 | Nc1nc2c(ncn2[C@@H]2O[C@H](COP(=O)(O)OP(=O)(O)NP(=O)(O)O)[C@@H](O)[C@H]2O)c(=O)[nH]1 [GMPPNP, 5′-guanylyl imidodiphosphate] | 48 | 
2 | C[C@@H]1C[C@@H]([C@H](O)CC2CC(=O)NC(=O)C2)C(=O)[C@@H](C)C1 [cycloheximide] | 80 | ~75
